Source: PubChem BioAssay (NCI)
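All cell lines were grown in 96-well plates and treated with compound for 48 hours. The concentration for full growth arrest is given as TGI.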

How the values were obtained:
Experiment in all cases: NCI-60 cell line screen, 48 h
[1] = test system: IGROV1 ovarian
[2] = test system: UACC-257 melanoma
[3] = test system: MOLT-4 leukemia
[4] = test system: SF-268 CNS
[5] = test system: ACHN renal
[6] = test system: RPMI-8226 leukemia
[7] = test system: A498 renal
[8] = test system: DMS 273 small cell lung
[9] = test system: MALME-3M melanoma
[10] = test system: HOP-18 NSCLC
[11] = test system: OVCAR-5 ovarian
[12] = test system: SK-MEL-2 melanoma
[13] = test system: TK-10 renal
[14] = test system: M14 melanoma
[15] = test system: KM20L2 colon
[16] = test system: HCT-116 colon
[17] = test system: EKVX NSCLC
[18] = test system: XF 498 CNS
[19] = test system: UO-31 renal
[20] = test system: HCT-15 colon
[21] = test system: A549 NSCLC
[22] = test system: LXFL 529 NSCLC
[23] = test system: OVCAR-4 ovarian
[24] = test system: SK-OV-3 ovarian
[25] = test system: HL-60(TB) leukemia
[26] = test system: K-562 leukemia
[27] = test system: HCC-2998 colon
[28] = test system: SF-539 CNS
[29] = test system: NCI-H226 lung
[30] = test system: SNB-78 CNS
[31] = test system: 786-0 renal
[32] = test system: SNB-75 CNS
[33] = test system: NCI-H522 lung
[34] = test system: HOP-92 NSCLC
[35] = test system: SW-620 colon
[36] = test system: SK-MEL-28 melanoma
[37] = test system: RXF 393 renal
[38] = test system: COLO 205 colon
[39] = test system: DMS 114 small cell lung
[40] = test system: SN12C renal
[41] = test system: M19-MEL melanoma
[42] = test system: NCI-H23 lung
[43] = test system: CCRF-CEM leukemia
[44] = test system: SR leukemia
[45] = test system: HT29 colon
[46] = test system: CAKI-1 renal
[47] = test system: SK-MEL-5 melanoma
[48] = test system: SF-295 CNS
[49] = test system: OVCAR-3 ovarian
[50] = test system: KM12 colon
[51] = test system: NCI-H460 lung
[52] = test system: LOX IMVI melanoma
[53] = test system: SNB-19 CNS
[54] = test system: U251 CNS
[55] = test system: UACC-62 melanoma
[56] = test system: OVCAR-8 ovarian
[57] = test system: DLD-1 colon
[58] = test system: HOP-62 NSCLC

Measured: TGI

O=C1C(c2ccccc2)=C(O)c2cccc3cccc1c23
not listed: [57] | [58]
> 100 µM: all other assays above

CCOc1cc2c(C(=O)CC)c(O)ccc2o1
> 72.5 µM: [16]
> 80.1 µM: [18]
> 95.7 µM: [37]
> 94.4 µM: [7]
23 µM: [25]
> 81.7 µM: [26]
> 52.8 µM: [55]
> 63.7 µM: [41]
> 85.1 µM: [43]
> 43.2 µM: [57]
> 87.2 µM: [39]
> 63.3 µM: [47]
> 56.8 µM: [23]
> 58.4 µM: [36]
> 93.6 µM: [24]
not listed: [10]
> 100 µM: all other assays above

O=C1C=CC(=O)C2=C1[C@@H](O)C1CC=CC3C(=O)O[C@@H]2C31 (stereo partly specified)
51.3 µM: [39]
> 65.4 µM: [45]
> 71.3 µM: [56]
50.7 µM: [32]
33.9 µM: [37]
> 58.6 µM: [28]
> 70.6 µM: [4]
45.4 µM: [34]
41.2 µM: [47] | [50]
> 69.9 µM: [5]
39.7 µM: [16]
34.8 µM: [33]
50.1 µM: [52]
> 68 µM: [42]
17.7 µM: [23]
> 71.5 µM: [19]
> 75.1 µM: [29]
> 58.1 µM: [13]
44.1 µM: [20]
> 55.2 µM: [31]
56.5 µM: [3]
35.6 µM: [12]
37.9 µM: [57]
35.8 µM: [55]
> 58.3 µM: [41]
37 µM: [38]
29.3 µM: [22]
> 62.3 µM: [30] | [36]
57 µM: [35]
36.8 µM: [49]
> 62 µM: [10]
42.1 µM: [18]
> 57.5 µM: [2]
40.4 µM: [25]
57.7 µM: [6]
22.6 µM: [1]
35.2 µM: [46]
36 µM: [14]
49.4 µM: [8]
34.6 µM: [9] | [27]
42.9 µM: [43]
37.2 µM: [40]
60.9 µM: [15]
> 61.5 µM: [26]
> 100 µM: all other assays above

Cc1nc(Nc2ccccc2)sc1C(=O)CC(=O)C(=O)Nc1c(C(C)C)cccc1C(C)C
89.5 µM: [17]
not listed: [6] | [7] | [32]
> 100 µM: all other assays above
